{
  "source": "paper PMC10357929",
  "about": "(Journal of the American Chemical Society, 2023)",
  "key": {"p53Y220C and p300": {"target": "p53Y220C and p300 (Homo sapiens, UniProt P04637+Q09472, Y220C)", "assay": "p53-FLAG pull-down of p53Y220C-p300 ternary complex", "assay_type": "cell-based", "conditions": "24 h"}, "BxPC3 (p53Y220C/−) cells": {"test_system": "BxPC3 (p53Y220C/−) cells", "conditions": "for GI50: 72 h"}, "p53-target genes [1]": {"test_system": "p53-target genes", "assay": "RNA-seq in NCI-H1299 p53-null and p53Y220C cells", "assay_type": "cell-based, human", "conditions": "10 μM, 24 h"}, "NCI-H1299 p53-null cells [2]": {"test_system": "NCI-H1299 p53-null cells", "assay": "Cell viability assay", "assay_type": "cell-based", "conditions": "72 h"}, "NUGC-3 cells": {"test_system": "NUGC-3 cells", "assay": "Clonogenic assay, NUGC-3", "assay_type": "cell-based", "conditions": "1, 3, 10 μM, 14 days; compared to PK9328 and compound 33"}, "p53-target genes [3]": {"test_system": "p53-target genes", "assay": "RT-qPCR of p53-target genes in NCI-H1299 p53Y220C stable cells", "assay_type": "cell-based", "conditions": "10 μM, 24 h; for increase in p21 mRNA expression: relative to DMSO"}, "PNT2 cells": {"test_system": "PNT2 cells", "assay": "Cytotoxicity in normal prostate cell line PNT2", "assay_type": "cell-based", "conditions": "read-out: GI50 (cytotoxicity)"}, "NCI-H1299 p53-null cells [4]": {"test_system": "NCI-H1299 p53-null cells", "assay": "Western blot of p53K382ac level in NCI-H1299 p53-null cells", "assay_type": "cell-based", "conditions": "0, 1, 3, 10 μM, 24 h"}, "p53Y220C [5]": {"target": "T1, p53Y220C (Homo sapiens, UniProt P04637, Y220C)", "assay": "Western blot of p53K382ac level in NUGC-3 cells", "assay_type": "cell-based", "conditions": "10 μM, 24 h"}, "p53Y220C [6]": {"target": "T1, p53Y220C", "assay": "Western blot of p53K382ac level in BxPC3 cells", "assay_type": "cell-based", "conditions": "10 μM, 24 h"}, "BxPC3 cells": {"test_system": "BxPC3 cells", "assay": "Clonogenic assay, BxPC3", "assay_type": "cell-based", "conditions": "1, 3, 10 μM, 14 days; compared to PK9328 and compound 33"}, "[7]": {"test_system": "other bromodomain-containing proteins", "assay": "BromoMelt profiling against other bromodomain-containing proteins", "conditions": "10 μM, duplicates"}, "[8]": {"test_system": "NUGC-3 (p53Y220C/+) cells", "conditions": "72 h"}, "[9]": {"test_system": "p53 WT U-2OS cancer cells", "assay": "Cell viability assay", "assay_type": "cell-based", "conditions": "72 h; for inhibition of cell growth at the highest concentration tested: 10 μM"}, "p53Y220C [10]": {"target": "T1, p53Y220C", "assay": "Western blot / FLAG-IP of p53K382ac level in NCI-H1299", "assay_type": "cell-based"}, "p53Y220C [11]": {"target": "T1, p53Y220C", "conditions": "cited from earlier work"}, "[12]": {"conditions": "p300-siRNA 72 h, then compound 72 h"}},
  "note": "“Also recorded” adds a separate entry of the source.",
  "data": [
    {"smiles": "CCn1c2ccc(CNCCOCCOCCOCCn3cc(COc4ccc(CCc5nc6cc(-c7c(C)noc7C)ccc6n5CCN5CCOCC5)cc4F)nn3)cc2c2ccc(-c3cc(C)cs3)cc21", "note": "[MS78]", "values": [
      {"measurement": "p53-p300 interaction (FLAG pull-down)", "setting": "p53Y220C and p300; NCI-H1299 p53-null cells", "value": "no interaction was observed"},
      {"measurement": "p53Y220C-p300 interaction (FLAG pull-down)", "setting": "p53Y220C and p300; NCI-H1299 p53Y220C cells", "value": "induced an interaction between p53Y220C and p300"},
      {"measurement": "GI50", "setting": "BxPC3 (p53Y220C/−) cells", "value": "3.3 ± 1", "unit": "µM"},
      {"measurement": "higher potency compared to the parent compound PK9328", "setting": "BxPC3 (p53Y220C/−) cells; GI50 in BxPC3 and NUGC-3", "value": "about 4 fold"},
      {"measurement": "expression of BAX, PUMA (BBC3), and NOXA (PMAIP1) genes", "setting": "p53-target genes [1]", "value": "no significant upregulation"},
      {"measurement": "expression of DDR genes such as ATM, ATR, and CHEK1/2", "setting": "p53-target genes [1]", "value": "downregulation"},
      {"measurement": "expression of heat shock protein genes such as HSPA5, HSP40 (DNAJB1), HSP1A1/B", "setting": "p53-target genes [1]", "value": "upregulation"},
      {"measurement": "cell growth inhibition", "setting": "NCI-H1299 p53-null cells [2]", "value": "did not induce any significant cell growth inhibition"},
      {"measurement": "clonogenicity", "setting": "NUGC-3 cells", "value": "marked reduction in clonogenicity"},
      {"measurement": "effect on TIGAR, BAX, and PUMA (BBC3) genes", "setting": "p53-target genes [3]", "value": "little or modest effect"},
      {"measurement": "expression of p21 (CDKN1A) and Mdm2 genes", "setting": "p53-target genes [3]", "value": "less upregulation"},
      {"measurement": "increase in p21 mRNA expression", "setting": "p53-target genes [3]", "value": 8, "unit": "fold"},
      {"measurement": "GI50", "setting": "PNT2 cells", "value": "> 10", "unit": "µM"},
      {"measurement": "K382 acetylation", "setting": "NCI-H1299 p53-null cells [4]", "value": "did not induce K382 acetylation"},
      {"measurement": "cell growth inhibition", "setting": "NCI-H1299 p53Y220C cells; 72 h", "value": "concentration-dependently inhibited the cell growth"},
      {"measurement": "antiproliferative effect after knockdown of p300", "setting": "NCI-H1299 p53Y220C cells; [12]", "value": "abolished the antiproliferative effect"},
      {"measurement": "increase in the p53K382ac level", "setting": "p53Y220C [5]", "value": "about 4 fold"},
      {"measurement": "increase in the p53K382ac level", "setting": "p53Y220C [6]", "value": "about 4 fold"},
      {"measurement": "clonogenicity", "setting": "BxPC3 cells", "value": "marked reduction in clonogenicity"},
      {"measurement": "selectivity over a panel of other BRD-containing proteins", "setting": "[7]", "value": "selective for the CBP/p300 BRD"},
      {"measurement": "GI50", "setting": "[8]", "value": "2.7 ± 0.5", "unit": "µM"},
      {"measurement": "inhibition of cell growth at the highest concentration tested", "setting": "[9]", "value": "30–40%"},
      {"measurement": "GI50", "setting": "[9]", "value": "> 10", "unit": "µM"},
      {"measurement": "K382 acetylation", "setting": "p53Y220C [10]; 0, 1, 3, 10 μM, 24 h, NCI-H1299 p53Y220C", "value": "significantly induced K382 acetylation"},
      {"measurement": "increase in p53K382ac level", "setting": "p53Y220C [10]; 10 μM, 6 h", "value": "about 2 fold"},
      {"measurement": "increase in p53K382ac level", "setting": "p53Y220C [10]; 10 μM, 24 h", "value": "about 4 fold"},
      {"measurement": "p53K382ac induction compared to compound 7", "setting": "p53Y220C [10]; 10 μM, 24 h", "value": "about 2 fold"},
      {"measurement": "p53Y220C K382 acetylation in p300 siRNA-treated cells", "setting": "p53Y220C [10]; p300 knockdown, NCI-H1299 (p53Y220C)", "value": "significantly diminished; also recorded: abolished"},
      {"measurement": "EC50", "setting": "p53Y220C [10]; read-out: ACE50 (the concentration at which 50% of p53Y220C is acetylated), 24 h, acetylation level at 10 μM MS78 as the maximum response", "value": "1870 ± 300", "unit": "nM"}
    ]},
    {"smiles": "CCn1c2ccc(CNC)cc2c2ccc(-c3cscn3)cc21", "note": "[PK9323]", "values": [
      {"measurement": "stabilizes p53Y220C with a melting temperature (Tm)", "setting": "p53Y220C [11]", "value": 3.1, "unit": "°C"}
    ]},
    {"smiles": "CCn1c2ccc(CNC)cc2c2ccc(-c3cc(C)cs3)cc21", "note": "[PK9328, reference compound]", "values": [
      {"measurement": "GI50", "setting": "BxPC3 (p53Y220C/−) cells", "value": "13.9 ± 2.4", "unit": "µM"},
      {"measurement": "cell growth inhibition", "setting": "NCI-H1299 p53-null cells [2]", "value": "did not induce any significant cell growth inhibition"},
      {"measurement": "effect on TIGAR, BAX, and PUMA (BBC3) genes", "setting": "p53-target genes [3]", "value": "little or modest effect"},
      {"measurement": "expression of p21 (CDKN1A) and Mdm2 genes", "setting": "p53-target genes [3]", "value": "upregulated"},
      {"measurement": "increase in p21 mRNA expression", "setting": "p53-target genes [3]", "value": 12, "unit": "fold"},
      {"measurement": "GI50", "setting": "PNT2 cells", "value": "> 10", "unit": "µM"},
      {"measurement": "K382 acetylation", "setting": "NCI-H1299 p53-null cells [4]", "value": "did not significantly induce K382 acetylation"},
      {"measurement": "reduction in the cell growth in p300-siRNA-treated cells", "setting": "NCI-H1299 p53Y220C cells; [12]", "value": "about 50%"},
      {"measurement": "GI50", "setting": "[8]", "value": "12.6 ± 1.9", "unit": "µM"},
      {"measurement": "inhibition of cell growth at the highest concentration tested", "setting": "[9]", "value": "30–40%"},
      {"measurement": "GI50", "setting": "[9]", "value": "> 10", "unit": "µM"}
    ]}
  ]
}
